Assay results published in US20240285630A1, “Methods and compositions for improving exercise performance” (MEZZION PHARMA CO., LTD., priority 2021, published 2024).

Experiments:
Format in all cases: in vivo, human
[1] = test system: Fontan population; assay: FUEL OLE (open-label extension) trial; settings: those treated with udenafil in the FUEL trial; 26 to 78 weeks
Text: Like most extension studies, the FUEL open label extension trial was not a placebo-controlled trial, but was instead designed to establish a safety profile over a longer duration of drug exposure—and is an independent source of data from FUEL.

[2] = test system: adolescents with Fontan physiology; assay: FUEL Trial safety, adverse event reports
Text: The primary outcome was the change in oxygen consumption at peak exercise (max or peak VO2) from baseline to the 26-week visit. Secondary exercise outcomes included change in additional measures at maximal exertion, as well as change in measures of submaximal exercise at the ventilatory anaerobic threshold (VAT). The primary outcome for clinical secondary aims included change in myocardial performance index (MPI), an echocardiographically-derived measure of systolic and diastolic ventricular function, change in log-transformed reactive hyperemia index (InRHI), a PAT-derived measure of peripheral vascular function, and change in log-transformed serum BNP level. Safety was monitored through adverse event reports, which were collected according to a pre-specified protocol of study coordinator outreach, and through ad hoc patient and family communication with members of the study team at each site.
The primary outcome for clinical secondary aims included the between group differences in change in myocardial performance index (MPI), an echocardiographically-derived measure of systolic and diastolic ventricular function, change in log-transformed reactive hyperemia index (InRHI), a PAT-derived measure of peripheral vascular function, and change in log-transformed serum BNP level. Measurements for each of these secondary outcomes were performed at core labs. Safety was monitored through adverse event reports, which were collected according to a pre-specified protocol of study coordinator outreach, and through ad hoc patient and family communication with members of the study team at each site.
A sample size of 200 participants per arm was chosen to allow for 90% power to detect a mean treatment difference in change from baseline to 26-week testing in peak VO2 of 10% with a type 1 error of 0.05. We assumed a baseline standard deviation of 7.235 ml/kg/min, a correlation between peak VO2 measurements of 0.33, a drop-out and incomplete testing rate of 10%, and failure to reach maximal effort at the 26-week exercise testing in 15% of participants. These assumptions were based on historical data and reflect a conservative approach to assessing within-participant correlations and failure to reach maximal effort and the analysis was performed using a two-sample, independent means t-test. The primary analysis used the intention-to-treat population to evaluate the difference in the change in the primary outcome between treatment arms. This difference was assessed with an analysis of covariance (ANCOVA) with fixed factors for ventricular morphology (single left versus single right or mixed) and treatment group, with a continuous covariate of baseline peak VO2. For those without data at the 26-week visit, this value was imputed as equal to the baseline value (no change). The alpha level was set at 0.05 with two-sided testing. All statistical analyses were performed using SAS statistical software 9.4 (SAS Institute, Inc., Cary, North Carolina). Secondary analyses included participants who successfully completed the protocol with measurable values at each of the secondary endpoints. Secondary outcomes of continuous data points were analyzed in the manner described for the primary outcome. In order to assess the generalizability of findings at the ventilatory anaerobic threshold, demographic and clinical characteristics were compared between participants without paired VO2 at VAT data and those comprising the remainder of the cohort using the Student's t-test and Fisher's exact test. Fisher's exact test was used to compare adverse events between the udenafil and placebo cohorts.

[3] = test system: adolescents with Fontan physiology; assay: FUEL Trial serum brain-type natriuretic peptide (BNP) level; settings: ANCOVA; listed as udenafil
[4] = test system: adolescents with Fontan physiology; assay: FUEL Trial peripheral arterial tonometry (EndoPAT), log-transformed reactive hyperemia index; settings: for Log-transformed reactive hyperemia index, difference Week 26 - baseline, mean (SD): paired data
Text: (§1) Baseline clinical testing completed before drug initiation included a blood draw to measure brain-type natriuretic peptide (BNP) level, a cardiopulmonary exercise test (CPET) using a standardized cycle ergometer ramp protocol, a standardized echocardiogram, and an assessment of peripheral vascular function using peripheral arterial tonometry (PAT) measured by finger cuff (EndoPAT; Itamar Medical, Israel). Participants who achieved maximal effort, defined as respiratory exchange ratio (RER)≥1.10 at peak exercise during CPET, were eligible for randomization and study drug initiation. […] End-of-study clinical testing included repeat measurement of serum BNP, CPET, echocardiogram, and PAT.
Baseline clinical testing completed before drug initiation included a blood draw to measure brain-type natriuretic peptide (BNP) level, a cardiopulmonary exercise test (CPET) using a standardized cycle ergometer ramp protocol (previously described in children and adolescents with Fontan physiology, Sleeper L A, Anderson P, Hsu D T, Mahony L, McCrindle B W, Roth S J, Saul J P, Williams R V, Geva T, Colan S D, Clark B J and Pediatric Heart Network I. Design of a large cross-sectional study to facilitate future clinical trials in children with the Fontan palliation. Am Heart J. 152(3):427-433 (September 2006), a standardized echocardiogram, and an assessment of peripheral vascular function using peripheral arterial tonometry (PAT) measured by finger cuff (EndoPAT; Itamar Medical, Israel). Participants who achieved maximal effort, defined as respiratory exchange ratio (RER)>1.10 at peak exercise during CPET, were eligible for randomization and study drug initiation. […] End-of-study clinical testing included repeat measurement of serum BNP, CPET, echocardiogram, and PAT. […]

[5] = test system: adolescents with Fontan physiology; assay: FUEL Trial resting data (heart rate, blood pressure, oxygen saturation); settings: baseline to 26-week
Text: as §1
The primary analysis used the intention-to-treat population to evaluate the difference in the change in the primary outcome between treatment arms. This difference was assessed with an analysis of covariance (ANCOVA) with fixed factors for ventricular morphology (single left versus single right or mixed) and treatment group, with a continuous covariate of baseline max VO2. For those without data at the 26-week visit, this value was imputed as equal to the baseline value (no change). […] Secondary outcomes of continuous data points were analyzed in the manner described for the primary outcome. […]

CCCOc1ccc(S(=O)(=O)NCCC2CCCN2C)cc1-c1nc2c(CCC)nn(C)c2c(=O)[nH]1 (stereo not shown) [Udenafil, udenafil]
Change from baseline in peak or max VO2 over FUEL and FUEL OLE [1]: persistence of benefit
Dizziness, % of participants ([2]; human, in vivo, 26 weeks): (8.0) %
Dizziness, number of participants ([2]; human, in vivo, 26 weeks): 16
Epistaxis, % of participants ([2]; human, in vivo, 26 weeks): (10.5) %
Epistaxis, number of participants ([2]; human, in vivo, 26 weeks): 21
Flushing, % of participants ([2]; human, in vivo, 26 weeks): (16.0) %
Flushing, number of participants ([2]; human, in vivo, 26 weeks): 32
Headache, % of participants ([2]; human, in vivo, 26 weeks): (39.5) %
Headache, number of participants ([2]; human, in vivo, 26 weeks): 79
Nausea/vomiting, % of participants ([2]; human, in vivo, 26 weeks): (15.5) %
Nausea/vomiting, number of participants ([2]; human, in vivo, 26 weeks): 31
Participants who experienced a serious adverse event ([2]; human, in vivo, 26 weeks): 14
Serious adverse events with possible, probable, or definite relationship to study drug ([2]; human, in vivo, 26 weeks): 3
Priapism ([2]; in vivo): no reported episodes of priapism
Increased erection, % of male participants ([2]; male, human, in vivo, 26 weeks): (11.7) %
Increased erection, number of participants ([2]; male, human, in vivo, 26 weeks): 13
Deaths ([2]; study cohort): no deaths
Log brain natriuretic peptide, difference LS Mean (SE), udenafil vs placebo [3]: not different between groups
Log-transformed reactive hyperemia index, difference LS Mean (SE), udenafil vs placebo ([4]; ANCOVA): 0.02 (0.030)
Log-transformed reactive hyperemia index, difference Week 26 - baseline, mean (SD) [4]: 0.06 (0.301)
Log-transformed reactive hyperemia index, difference Week 26 - baseline, mean (SD) ([4]; listed as udenafil): 0.07
Change in resting heart rate, respiratory rate, or systolic blood pressure, udenafil vs placebo [5]: no difference
